The numbers were not newly measured in patent publication US20160249623A1, “METHODS FOR DISPENSING SALT-FREE HYPOCHLOROUS ACID FOR HAND-SANITIZING” (priority 2015, published 2016), which cites them from elsewhere.

In data set [1] the test system is HIV (Human Immunodeficiency Virus). The following applies: the longest kill-time.
The test system of data set [2] is all viruses, bacteria, mold and spores.

For `OCl` [HOCI, hypochlorous acid], the figures for the kill-time result in data set [1] and in data set [2] were “less than 1 minute” and “within seconds”, respectively.
